This note sets out measurements from PubChem BioAssay (NCI).

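Grown in 96-well plates, cells were treated for 48 hours with each compound at five concentrations. Insufficient inhibition: endpoint recorded as highest concentration tested. Here, GI50 denotes the concentration required for 50% inhibition of growth. TGI: total growth inhibition.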

The first assay relates to CAKI-1 renal. As to the kind of experiment: inhibition of tumour cell growth, NCI panel, 48 h.
Take `C=C1C(=O)OC2/C=C(\C(=O)O)CC/C=C(\C)CC(OC(=O)/C=C(\C)CC)C12` (stereo not given): the TGI came out at 54.1 µM.

`O=C(c1ccccc1)c1ccc2n[se]nc2c1` displayed a TGI of more than 100 µM.

In turn, `CC(=O)C(C(c1ccccc1)N1CCOCC1)N1CCOCC1` (stereo not given) yielded a TGI of more than 100 µM.

The compound `CCOP(=Nc1ccc(N(C)C)cc1)(OCC)OCC` yielded a TGI of more than 100 µM.

Turning to `CCCC(C)c1ccc(OCCCCCCN2CCNCC2)cc1` (stereo not given), the GI50 is 1.99 µM and the TGI is 4.45 µM.

For the compound `CCC1C[N+]23CCc4c([nH]c5ccccc45)C2CC1CC3` (stereo not given), the TGI is more than 100 µM.

Regarding `CC1=C2C(O)C(C(C)C(=O)N(C)C)CCC2(C)C=CC1=O` (stereo not given), the TGI is more than 100 µM.

The compound `Cc1ccc(S(=O)(=O)Nc2cccc3c(=O)[nH]cnc23)cc1` came in with a TGI of more than 100 µM.

The subject of another assay is DU-145 prostate. Kind of assay: inhibition of tumour cell growth, NCI panel, 48 h.
The compound `CC(=O)C(C(c1ccccc1)N1CCOCC1)N1CCOCC1` (stereo not given) returned a TGI of more than 100 µM.

For the compound `CCOP(=Nc1ccc(N(C)C)cc1)(OCC)OCC`, the TGI is more than 100 µM.

As to `CCCC(C)c1ccc(OCCCCCCN2CCNCC2)cc1` (stereo not given), the GI50 was 2.25 µM and the TGI is 5.43 µM.

For another assay, the system named is HCT-15 colon. Kind of assay: inhibition of tumour cell growth, NCI panel, 48 h.
Compound `C=C1C(=O)OC2/C=C(\C(=O)O)CC/C=C(\C)CC(OC(=O)/C=C(\C)CC)C12` (stereo not given) registered a TGI of 28.6 µM.

As for `O=C(c1ccccc1)c1ccc2n[se]nc2c1`, the TGI was more than 100 µM.

As for `CC(=O)C(C(c1ccccc1)N1CCOCC1)N1CCOCC1` (stereo not given), the TGI was more than 100 µM.

As to `CCOP(=Nc1ccc(N(C)C)cc1)(OCC)OCC`, the TGI was more than 100 µM.

As to `CCCC(C)c1ccc(OCCCCCCN2CCNCC2)cc1` (stereo not given), the GI50 is 1.88 µM and the TGI came to 3.77 µM.

Regarding `CCC1C[N+]23CCc4c([nH]c5ccccc45)C2CC1CC3` (stereo not given), the TGI is more than 100 µM.

`CC1=C2C(O)C(C(C)C(=O)N(C)C)CCC2(C)C=CC1=O` (stereo not given) displayed a TGI of more than 100 µM.

The compound `Cc1ccc(S(=O)(=O)Nc2cccc3c(=O)[nH]cnc23)cc1` registered a TGI of more than 100 µM.

Consider `O=C1C=C(C2OC(CO)C(O)C2O)C(=O)N1` (stereo not given), for which the TGI is more than 100 µM.

The next assay has as its system HOP-18 NSCLC. Kind of assay: inhibition of tumour cell growth, NCI panel, 48 h.
`C=C1C(=O)OC2/C=C(\C(=O)O)CC/C=C(\C)CC(OC(=O)/C=C(\C)CC)C12` (stereo not given) displayed a TGI of 39.9 µM.

`CC1=C2C(O)C(C(C)C(=O)N(C)C)CCC2(C)C=CC1=O` (stereo not given) displayed a TGI of more than 100 µM.

Turning to `Cc1ccc(S(=O)(=O)Nc2cccc3c(=O)[nH]cnc23)cc1`, the TGI was more than 100 µM.

`O=C1C=C(C2OC(CO)C(O)C2O)C(=O)N1` (stereo not given) gave a TGI of more than 100 µM.

A further assay deals with IGROV1 ovarian. Kind of assay: inhibition of tumour cell growth, NCI panel, 48 h.
`C=C1C(=O)OC2/C=C(\C(=O)O)CC/C=C(\C)CC(OC(=O)/C=C(\C)CC)C12` (stereo not given) had a TGI of 40.9 µM.

The compound `O=C(c1ccccc1)c1ccc2n[se]nc2c1` came in with a TGI of more than 100 µM.

For the compound `CC(=O)C(C(c1ccccc1)N1CCOCC1)N1CCOCC1` (stereo not given), the TGI is more than 100 µM.

`CCOP(=Nc1ccc(N(C)C)cc1)(OCC)OCC` returned a TGI of more than 100 µM.

With `CCCC(C)c1ccc(OCCCCCCN2CCNCC2)cc1` (stereo not given), the GI50 was 1.92 µM and the TGI was determined as 3.78 µM.

For `CCC1C[N+]23CCc4c([nH]c5ccccc45)C2CC1CC3` (stereo not given), the TGI is more than 100 µM.

`CC1=C2C(O)C(C(C)C(=O)N(C)C)CCC2(C)C=CC1=O` (stereo not given) registered a TGI of more than 100 µM.

The compound `Cc1ccc(S(=O)(=O)Nc2cccc3c(=O)[nH]cnc23)cc1` displayed a TGI of more than 100 µM.

`O=C1C=C(C2OC(CO)C(O)C2O)C(=O)N1` (stereo not given) displayed a TGI of more than 100 µM.

For another assay, the system named is LOX IMVI melanoma. Kind of assay: inhibition of tumour cell growth, NCI panel, 48 h.
Regarding `C=C1C(=O)OC2/C=C(\C(=O)O)CC/C=C(\C)CC(OC(=O)/C=C(\C)CC)C12` (stereo not given), the TGI stood at 29.3 µM.

`O=C(c1ccccc1)c1ccc2n[se]nc2c1` showed a TGI of more than 100 µM.

Compound `CC(=O)C(C(c1ccccc1)N1CCOCC1)N1CCOCC1` (stereo not given) showed a TGI of more than 100 µM.

For the compound `CCC1C[N+]23CCc4c([nH]c5ccccc45)C2CC1CC3` (stereo not given), the TGI is more than 100 µM.

Consider `CC1=C2C(O)C(C(C)C(=O)N(C)C)CCC2(C)C=CC1=O` (stereo not given), for which the TGI was more than 100 µM.

Take `Cc1ccc(S(=O)(=O)Nc2cccc3c(=O)[nH]cnc23)cc1`: the TGI was more than 100 µM.

`O=C1C=C(C2OC(CO)C(O)C2O)C(=O)N1` (stereo not given) displayed a TGI of more than 100 µM.

The next assay concerns MDA-MB-435. As to the kind of experiment: inhibition of tumour cell growth, NCI panel, 48 h.
For the compound `CC(=O)C(C(c1ccccc1)N1CCOCC1)N1CCOCC1` (stereo not given), the TGI is more than 100 µM.

The compound `CCOP(=Nc1ccc(N(C)C)cc1)(OCC)OCC` displayed a TGI of more than 100 µM.

Regarding `CCCC(C)c1ccc(OCCCCCCN2CCNCC2)cc1` (stereo not given), the GI50 is 1.7 µM and the TGI came to 3.22 µM.

In the next assay the test system is NCI-H23 lung. As to the kind of experiment: inhibition of tumour cell growth, NCI panel, 48 h.
Compound `C=C1C(=O)OC2/C=C(\C(=O)O)CC/C=C(\C)CC(OC(=O)/C=C(\C)CC)C12` (stereo not given) registered a TGI of 33.2 µM.

`O=C(c1ccccc1)c1ccc2n[se]nc2c1` yielded a TGI of more than 100 µM.

In turn, `CC(=O)C(C(c1ccccc1)N1CCOCC1)N1CCOCC1` (stereo not given) registered a TGI of more than 100 µM.

For `CCOP(=Nc1ccc(N(C)C)cc1)(OCC)OCC`, the TGI is more than 100 µM.

`CCCC(C)c1ccc(OCCCCCCN2CCNCC2)cc1` (stereo not given): the GI50 is 2.13 µM and the TGI stood at 5.62 µM.

Compound `CCC1C[N+]23CCc4c([nH]c5ccccc45)C2CC1CC3` (stereo not given) registered a TGI of more than 100 µM.

For the compound `CC1=C2C(O)C(C(C)C(=O)N(C)C)CCC2(C)C=CC1=O` (stereo not given), the TGI is more than 100 µM.

Compound `Cc1ccc(S(=O)(=O)Nc2cccc3c(=O)[nH]cnc23)cc1` registered a TGI of more than 100 µM.

For the compound `O=C1C=C(C2OC(CO)C(O)C2O)C(=O)N1` (stereo not given), the TGI is more than 100 µM.

The subject of another assay is NCI/ADR-RES ovarian. Kind of assay: inhibition of tumour cell growth, NCI panel, 48 h.
`CC(=O)C(C(c1ccccc1)N1CCOCC1)N1CCOCC1` (stereo not given) showed a TGI of more than 100 µM.

Take `CCOP(=Nc1ccc(N(C)C)cc1)(OCC)OCC`: the TGI was more than 100 µM.

In the case of `CCCC(C)c1ccc(OCCCCCCN2CCNCC2)cc1` (stereo not given), the GI50 was 2.22 µM and the TGI stood at 5.37 µM.

As for `CC1=C2C(O)C(C(C)C(=O)N(C)C)CCC2(C)C=CC1=O` (stereo not given), the TGI is more than 100 µM.

As to `O=C1C=C(C2OC(CO)C(O)C2O)C(=O)N1` (stereo not given), the TGI was more than 100 µM.

For another assay, the system named is SR leukemia. As to the kind of experiment: inhibition of tumour cell growth, NCI panel, 48 h.
Compound `C=C1C(=O)OC2/C=C(\C(=O)O)CC/C=C(\C)CC(OC(=O)/C=C(\C)CC)C12` (stereo not given) showed a TGI of more than 100 µM.

For the compound `CC(=O)C(C(c1ccccc1)N1CCOCC1)N1CCOCC1` (stereo not given), the TGI was more than 100 µM.

`CCCC(C)c1ccc(OCCCCCCN2CCNCC2)cc1` (stereo not given): the GI50 is 1.7 µM and the TGI is 4.21 µM.

In the case of `CCC1C[N+]23CCc4c([nH]c5ccccc45)C2CC1CC3` (stereo not given), the TGI was more than 100 µM.

For the compound `Cc1ccc(S(=O)(=O)Nc2cccc3c(=O)[nH]cnc23)cc1`, the TGI is more than 100 µM.

A further assay deals with UACC-62 melanoma. Kind of assay: inhibition of tumour cell growth, NCI panel, 48 h.
As for `C=C1C(=O)OC2/C=C(\C(=O)O)CC/C=C(\C)CC(OC(=O)/C=C(\C)CC)C12` (stereo not given), the TGI came to 28.5 µM.

On to `O=C(c1ccccc1)c1ccc2n[se]nc2c1`, for which the TGI was more than 100 µM.

`CC(=O)C(C(c1ccccc1)N1CCOCC1)N1CCOCC1` (stereo not given) showed a TGI of more than 100 µM.

As to `CCOP(=Nc1ccc(N(C)C)cc1)(OCC)OCC`, the TGI was more than 100 µM.

As to `CCCC(C)c1ccc(OCCCCCCN2CCNCC2)cc1` (stereo not given), the GI50 was 1.95 µM and the TGI was found to be 3.71 µM.

The compound `CCC1C[N+]23CCc4c([nH]c5ccccc45)C2CC1CC3` (stereo not given) displayed a TGI of more than 100 µM.

In turn, `CC1=C2C(O)C(C(C)C(=O)N(C)C)CCC2(C)C=CC1=O` (stereo not given) displayed a TGI of more than 100 µM.

In the case of `Cc1ccc(S(=O)(=O)Nc2cccc3c(=O)[nH]cnc23)cc1`, the TGI is more than 100 µM.

Consider `O=C1C=C(C2OC(CO)C(O)C2O)C(=O)N1` (stereo not given), for which the TGI is more than 100 µM.
